Where two headings read alike, the source gives them in different places.
Tests used:
[1] = test system: P. falciparum NF54; assay: In vitro microplate assay against P. falciparum (3H-hypoxanthine incorporation); type: cell-based, Plasmodium falciparum; conditions: for S.I. = IC50 (Cyt.)/IC50 (P.f.NF54): L-6 cells vs P.f. NF54; for IC50: average of four determinations, read-out: P.f. NF54 IC50
Experimental: In vitro activity against the erythrocytic stages of P. falciparum was determined using a ^3H-hypoxanthine incorporation assay, using the drug sensitive NF54 strain [37]. […] The 96-well plates were incubated in a humidified atmosphere at 37 °C, 4% CO2, 3% O2 and 93% N2. After 48 h, 0.05 mL of ^3H-hypoxanthine (=0.5 µCi) was added to each well of the plate. The plates were incubated for a further 24 h under the same conditions. The plates were then harvested with a Betaplate cell harvester (Wallac, Zurich, Switzerland). The red blood cells were transferred onto a glass fiber filter and washed with distilled water. The dried filters were inserted into a plastic foil with 10 mL of scintillation fluid and counted in a Betaplate liquid scintillation counter (Wallac, Zurich, Switzerland). The IC50 values were calculated from sigmoidal inhibition curves by linear regression using Microsoft Excel. Chloroquine (Sigma C6628) was used as control.

[2] = In vitro cytotoxicity with L-6 cells (resazurin); type: cell-based, rat; conditions: rat
Experimental: Serial drug dilutions of 11 3-fold dilution steps covering a range from 100 to 0.002 μg/mL were prepared. After 70 h of incubation, the plates were inspected under an inverted microscope to assure the growth of the controls and sterile conditions. […] The plates were read with a Spectramax Gemini XS microplate fluorometer (Molecular Devices Cooperation, Sunnyvale, CA, USA) using an excitation wavelength of 536 nm and an emission wavelength of 588 nm. The IC50 values were calculated by linear regression from the sigmoidal dose inhibition curves using SoftmaxPro software Version 8.2.1 (Molecular Devices Cooperation, Sunnyvale, CA, USA). Podophyllotoxin (Sigma P4405) was used as control.

[3] = target: CYP3A4 (Homo sapiens, UniProt P08684); assay: Cytochrome P450 3A4 inhibition assay (P450-Glo, Luciferin-IPA); conditions: recombinant human CYP3A4 Supersomes (+ oxidoreductase + b5), pH 7.4, probe Luciferin-IPA
Sequence of CYP3A4 (P08684 2-503 limits assumed): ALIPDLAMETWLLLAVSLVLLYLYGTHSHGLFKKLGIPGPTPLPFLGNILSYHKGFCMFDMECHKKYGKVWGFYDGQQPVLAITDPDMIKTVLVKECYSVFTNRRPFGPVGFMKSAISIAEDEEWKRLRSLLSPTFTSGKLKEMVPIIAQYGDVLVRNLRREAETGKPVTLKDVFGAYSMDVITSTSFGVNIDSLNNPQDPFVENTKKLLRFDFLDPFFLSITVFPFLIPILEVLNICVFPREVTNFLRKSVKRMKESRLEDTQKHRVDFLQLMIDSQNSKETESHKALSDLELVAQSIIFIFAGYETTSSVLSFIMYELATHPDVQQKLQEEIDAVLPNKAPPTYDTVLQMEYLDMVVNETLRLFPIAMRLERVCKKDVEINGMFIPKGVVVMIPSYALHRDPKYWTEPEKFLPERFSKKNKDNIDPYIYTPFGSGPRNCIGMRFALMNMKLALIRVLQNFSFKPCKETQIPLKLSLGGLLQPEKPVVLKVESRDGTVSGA
Experimental: The CYP3A4 inhibition assay was performed using 96-well white plates (Greiner Bio-One) at a pH of 7.4. […] Stock solutions were further diluted to a final concentration of 20 µM using water (HPLC grade). The luciferin IPA stock solution (3 mM) was diluted to a final concentration of 0.3 mM using water (HPLC grade). The CYP3A4 reaction mixture was prepared by mixing water (HPLC grade) with potassium phosphate buffer (1 M), luciferin IPA (0.3 mM) and CYP3A4 membrane (1 pmol/µL). The control reaction mixture was prepared using water (HPLC grade), potassium phosphate buffer (1 M), luciferin IPA (0.3 mM) and membrane without CYP activity (1 pmol/µL). Solutions A and B of the NADPH regeneration system were mixed and HPLC grade water was added. The reconstituted luciferin detection reagent was prepared by mixing the reconstituted buffer with esterase with the luciferin detection reagent. Then, solutions of test compounds and standard were added to the wells of the 96-well white plate; each was tested in triplicate. The CYP3A4 reaction mixture was added to each well and the plate was incubated for 10 min at room temperature. After that, the NADPH regeneration system was added, inducing the reaction followed by an incubation time of 10 min at ambient temperature. By adding the reconstituted luciferin detection reagent, the reaction was terminated and a luminescent signal was formed. Luminescence was measured by a SpectraMax M3 UV plate reader (Molecular Devices). The relative light units (RLU) were received from a calibration curve with beetle luciferin. […] The CYP3A4 inhibition (%) was calculated from the RLU.

[4] = Plasmodium falciparum, NF54, chloroquine-sensitive strain NF54
[5] = chloroquine-sensitive strain NF54

| Structure (SMILES) | S.I. = IC50 (Cyt.)/IC50 (P.f.NF54) [1] | IC50 [1, 4] [µM] | IC50 at 72 h [2] [µM] | inhibition at 10 min, 20 µM [3] [%] | melting point [°C] | IC50 [1, 5] [µM] |
| --- | --- | --- | --- | --- | --- | --- |
| O=C(Nc1nonc1-c1ccc([N+](=O)[O-])cc1)c1ccccc1 [Compound 37, N-[4-(4-Nitrophenyl)-1,2,5-oxadiazol-3-yl]benzamide] | 6.694 | 1.81 | 12.2 | 46 | 208 | – |
| Cc1cccc(C(=O)Nc2nonc2-c2ccc([N+](=O)[O-])cc2)c1 [Compound 38, 3-Methyl-N-[4-(4-nitrophenyl)-1,2,5-oxadiazol-3-yl]benzamide] | – | 0.99 | 3.47 | 68 | – | – |
| O=C(Nc1nonc1-c1ccc([N+](=O)[O-])cc1)c1cccc(F)c1 [Compound 39, 3-Fluoro-N-[4-(4-nitrophenyl)-1,2,5-oxadiazol-3-yl]benzamide] | 0.809 | 5.33 | 4.31 | 43 | – | – |
| O=C(Nc1nonc1-c1ccc([N+](=O)[O-])cc1)c1cccc(C(F)(F)F)c1 [Compound 40, N-[4-(4-Nitrophenyl)-1,2,5-oxadiazol-3-yl]-3-(trifluoromethyl)benzamide] | 0.473 | 1.98 | 0.936 | 82 | 147 | – |
| O=C(Nc1nonc1-c1cccc([N+](=O)[O-])c1)c1ccccc1 [Compound 41, N-[4-(3-Nitrophenyl)-1,2,5-oxadiazol-3-yl]benzamide] | 0.666 | 9.11 | 6.07 | 82 | 179 | – |
| Cc1cccc(C(=O)Nc2nonc2-c2cccc([N+](=O)[O-])c2)c1 [Compound 42, 3-Methyl-N-[4-(3-nitrophenyl)-1,2,5-oxadiazol-3-yl]benzamide] | 0.464 | 11.5 | 5.32 | 87 | 158 | – |
| O=C(Nc1nonc1-c1cccc([N+](=O)[O-])c1)c1cccc(F)c1 [Compound 43, 3-Fluoro-N-[4-(3-nitrophenyl)-1,2,5-oxadiazol-3-yl]benzamide] | 0.104 | 26.7 | 2.77 | 79 | 174 | – |
| O=C(Nc1nonc1-c1cccc([N+](=O)[O-])c1)c1cccc(C(F)(F)F)c1 [Compound 44, N-[4-(3-Nitrophenyl)-1,2,5-oxadiazol-3-yl]-3-(trifluoromethyl)benzamide] | 0.198 | 8.64 | 1.71 | 94 | – | – |
| O=C(Nc1nonc1-c1ccc(F)cc1)c1cccc(F)c1 [Compound 45, 3-Fluoro-N-[4-(4-fluorophenyl)-1,2,5-oxadiazol-3-yl]benzamide] | 1.000 | 11.2 | 11.2 | 60 | 169 | – |
| O=C(Nc1nonc1-c1ccc(Cl)cc1)c1cccc(F)c1 [Compound 46, N-[4-(4-Chlorophenyl)-1,2,5-oxadiazol-3-yl]-3-fluorobenzamide] | 1.155 | 10.1 | 11.7 | – | 180 | – |
| Cc1cccc(C(=O)Nc2nonc2-c2ccc(Cl)cc2)c1 [Compound 47, N-[4-(4-Chlorophenyl)-1,2,5-oxadiazol-3-yl]-3-methylbenzamide] | 15.54 | 8.73 | 136 | 57 | 165 | – |
| O=C(Nc1nonc1-c1ccc(Cl)cc1)c1cccc(C(F)(F)F)c1 [Compound 48, N-[4-(4-Chlorophenyl)-1,2,5-oxadiazol-3-yl]-3-(trifluoromethyl)benzamide] | 0.599 | 8.44 to 17.7 | 5.06 | – | – | 8.44 |
| Cc1cccc(C(=O)Nc2nonc2-c2ccc(F)cc2)c1 [Compound 49, N-[4-(4-Fluorophenyl)-1,2,5-oxadiazol-3-yl]-3-methylbenzamide] | 4.328 | – | 35.1 | 84 | – | – |
| CCOc1cc(-c2nonc2NC(=O)c2cccc(C)c2)ccc1OC [Compound 51, N-[4-(3-Ethoxy-4-methoxyphenyl)-1,2,5-oxadiazol-3-yl]-3-methylbenzamide] | 1526 | 0.034 | 51.9 | 66 | 280 | – |
| CCOc1ccc(-c2nonc2NC(=O)c2cccc(C)c2)cc1OC [Compound 52, N-[4-(4-Ethoxy-3-methoxyphenyl)-1,2,5-oxadiazol-3-yl]-3-methylbenzamide] | 86.47 | 0.275 | 23.8 | 52 | 260 | – |
| COc1ccc(C(=O)Nc2nonc2-c2ccc([N+](=O)[O-])cc2)cc1Cl [Compound 53, 3-Chloro-4-methoxy-N-[4-(4-nitrophenyl)-1,2,5-oxadiazol-3-yl]benzamide] | – | 0.323 | 3.35 | – | 261 | – |
| COc1ccc(C(=O)Nc2nonc2-c2cccc([N+](=O)[O-])c2)cc1Cl [Compound 54, 3-Chloro-4-methoxy-N-[4-(3-nitrophenyl)-1,2,5-oxadiazol-3-yl]benzamide] | 0.932 | 5.92 | 5.52 | – | 248 | – |
| Nc1ccc(-c2nonc2NC(=O)c2ccccc2)cc1 [Compound 55, N-[4-(4-Aminophenyl)-1,2,5-oxadiazol-3-yl]benzamide] | 16.62 | 7.42 | 123 | – | 169 | – |
| Cc1cccc(C(=O)Nc2nonc2-c2ccc(N)cc2)c1 [Compound 56, N-[4-(4-Aminophenyl)-1,2,5-oxadiazol-3-yl]-3-methylbenzamide] | 15.70 | 6.83 | 107 | – | 159 | – |
| Nc1ccc(-c2nonc2NC(=O)c2cccc(F)c2)cc1 [Compound 57, N-[4-(4-Aminophenyl)-1,2,5-oxadiazol-3-yl]-3-fluorobenzamide] | 18.90 | 10.5 | 198 | – | 189 | – |
| Nc1ccc(-c2nonc2NC(=O)c2cccc(C(F)(F)F)c2)cc1 [Compound 58, N-[4-(4-Aminophenyl)-1,2,5-oxadiazol-3-yl]-3-(trifluoromethyl)benzamide] | 3.548 | 9.26 | 32.9 | – | 154 | – |
| COc1ccc(C(=O)Nc2nonc2-c2ccc(N)cc2)cc1Cl [Compound 59, N-[4-(4-Aminophenyl)-1,2,5-oxadiazol-3-yl]-3-chloro-4-methoxybenzamide] | 31.54 | 3.14 | 98.9 | – | 250 | – |
| Nc1cccc(-c2nonc2NC(=O)c2ccccc2)c1 [Compound 60, N-[4-(3-Aminophenyl)-1,2,5-oxadiazol-3-yl]benzamide] | 4.039 | – | 217 | – | 178 | – |
| Nc1cccc(-c2nonc2NC(=O)c2cccc(F)c2)c1 [Compound 62, N-[4-(3-Aminophenyl)-1,2,5-oxadiazol-3-yl]-3-fluorobenzamide] | 6.107 | – | 195 | – | 163 | 32 |
| Nc1cccc(-c2nonc2NC(=O)c2cccc(C(F)(F)F)c2)c1 [Compound 63, N-[4-(3-Aminophenyl)-1,2,5-oxadiazol-3-yl]-3-(trifluoromethyl)benzamide] | 1.201 | – | 21.2 | – | – | – |

Source: paper PMC10572347, “Structure–Activity Relationships and Antiplasmodial Potencies of Novel 3,4-Disubstituted 1,2,5-Oxadiazoles” (International Journal of Molecular Sciences, 2023)
